# Assays:
# [1] = system: human ovarian tumor cell xenografts; settings: nude mice; Pizer, et al. (1996); cited from earlier work
# [2] = system: breast cancer cells; settings: Pizer, et al. (1996); cited from earlier work
# [3] = system: lipogenic prostate cancer cells; settings: Kridel, et al. (2004); cited from earlier work
# [4] = system: lipogenic prostate cancer cells xenografts; settings: immunodeficient mice; Kridel, et al. (2004); cited from earlier work
# [5] = system: SREBP-1c mRNA; assay: Real-time RT-PCR of SREBP-1c mRNA in T47D cells; settings: 10 nM, within 48 hours, cyclophilin as control
# [6] = system: human S14 gene promoter; assay: Human S14 gene promoter fragment luciferase reporter; type: cell-based; settings: proximal 4003 bp of human S14 promoter fused to luciferase
# Protocol: (§1) Using a human S14 gene promoter fragment fused to a luciferase reporter, the mechanism underlying R1881-induced accumulation of S14 mRNA was determined. The human S14 construct contained the proximal 4003 bp of the S14 promoter (Campbell, et al. (2003) Endocrinol. 144:5242-5248). […] Nevertheless, R1881 induced promoter activity by 4-fold. Employing a 157 bp fragment of the human FAS gene promoter that is also devoid of progesterone response elements (Swinnen, et al. (1997) supra), the effect of R1881 on FAS gene expression was examined.
# (§2) T47D or HEK 293 cells were plated at 50% confluence in 75 cm^2 flasks and the next morning were transfected with 8 μg plasmid DNA in 48 μL FUGENE (Roche, Indianapolis, Ind.) in 5% charcoal-stripped serum-containing media without antibiotics. To ensure uniform transfection efficiency, cells were trypsinized, mixed, and redistributed into 6-well plates 8 hours later. Forty-eight hours post-transfection, culture medium was removed, and extracts prepared in reporter lysis buffer (250 μL/well; PROMEGA, Madison, Wis.). Lysates (20 μL) were assessed for luciferase activity using an LMaxII384 luminometer (MOLECULAR DEVICES, Sunnyvale, Calif.), and normalized to protein concentrations (BCA Protein Assay; Pierce, Rockland, Ill.).
# [7] = system: FAS mRNA; assay: Real-time RT-PCR of FAS mRNA in T47D cells
# [8] = system: S14 mRNA; assay: Real-time RT-PCR of S14 mRNA in T47D cells
# [9] = system: human FAS gene promoter; assay: Human FAS gene promoter fragment luciferase reporter; type: cell-based; settings: 48 hours exposure
# Protocol: as §1, §2
# [10] = system: S14 mRNA; settings: Heemers, et al. (2000); cited from earlier work
# [11] = system: S14 protein; assay: Western blot of S14 protein in T47D cells; settings: single stimulus; R1881 10 nM 48 hours or adenovirus alone
# [12] = 10 nM, within 48 hours, T47D cells, cyclophilin as control
# [13] = time course using nM R5020, T47D cells
smiles,measurement,setting,value
C/C=C/C/C=C/CCC(=O)[C@H]1O[C@H]1C(N)=O [Cerulenin],growth of human ovarian tumor cell xenografts,[1],inhibit the growth
same,apoptosis of breast cancer cells,[2],cause apoptosis
CCCCCCCCCCC[C@@H](C[C@@H]1OC(=O)[C@H]1CCCCCC)OC(=O)[C@H](CC(C)C)NC=O [Orlistat],apoptosis of lipogenic prostate cancer cells in culture,[3],causes apoptosis
same,apoptosis of lipogenic prostate cancer cells in xenografts,[4],causes apoptosis
C[C@]1(O)CC[C@H]2[C@@H]3CCC4=CC(=O)CCC4=C3C=C[C@@]21C [R1881],SREBP-1c mRNA induction,[5],significantly induced
same,S14 promoter activity induction,[6],4 fold
same,FAS mRNA induction,[7]; [12],significantly induced
same,FAS mRNA induction by R1881 in presence of Ad-β-gal,[7]; T47D cells,~2 fold
same,S14 mRNA induction,[8]; [12],significantly induced
same,S14 mRNA induction by R1881 in presence of control adenovirus (Ad-β-gal),"[8]; R1881 10 nM, RNA harvested 40 hours later, MOI 50",~8 fold
same,FAS promoter induction,[9]; 157 bp fragment of human FAS gene promoter,4 fold
same,"FAS promoter response, construct with sterol response element deleted",[9],markedly reduced
same,S14 mRNA induction in T47D cells,[10],significantly induces
same,S14 protein (~16 kD band) on western blot,[11],faint band
CCC(=O)[C@@]1(C)CC[C@H]2[C@@H]3CCC4=CC(=O)CCC4=C3CC[C@@]21C [R5020],"FAS mRNA induction, time course",[7]; [13],comparable to that observed with R1881
same,lag time between application of the hormone and onset of accumulation of FAS mRNA,"[7]; time course, T47D cells",> 10 h
same,"S14 mRNA induction, time course",[8]; [13],comparable to that observed with R1881
same,lag time between application of the hormone and onset of accumulation of S14 mRNA,"[8]; time course, T47D cells",> 10 h
same,S14 mRNA induction in T47D cells,[10],significantly induces
